Laboratory results as given in patent US7662388B2, “Endogenous peptide and active subfragments thereof” (Innoventus Project AB, priority 2003, dated 2010).

Experiments:
[1] = system: chicken chorioallantoic membrane (CAM); test: chicken chorioallantoic membrane (CAM) angiogenesis assay; type: in vivo; conditions: FGF-2 or VEGF-A 0.2 mg per filter, HRGP 3 mg per filter, three days
Description: The effect of HRGP on anglogenesis was tested in the chicken chorioallantoic membrane (CAM) assay.
The conditions for the chorioallantoic membrane (CAM) assay followed essentially a previously described procedure (Friedlander et al (1995), Dixelius et al, (2000)). FGF-2 (Boehringer Mannheim) and VEGF-A (Peprotech) was used at 0.2 mg per filter and purified pHRGP or rHRGP at 3 mg per filter. The treated CAM's were inspected in a light microscope and the score, from 0 (low) to 3 (high) was based on the number of vessel branch points. Average values for 5-6 embryos were recorded.
A filter disc soaked in vehicle or growth factor, with or without HRGP, was placed on top of the CAM in the vicinity of a large vessel and incubated for three days. Treatment of the CAM with growth factors, such as FGF-2, stimulated angiogenesis (FIG. 1C; Table 1).

[2] = system: T241 fibrosarcoma cells; test: fibrosarcoma tumour growth in mice (HRGP); type: in vivo; conditions: fibrosarcoma-bearing mice, summary of experiment 4
Description: Animal work was carried out at the local animal facility and was approved by the Uppsala University board of animal experimentation and thus performed according to the UKCCCR guidelines for the welfare of animals in experimental neoplasia (Workman et al (1988)). The mice were anesthetized with isoflurane (Forene; Abbott) during all manipulations. Female, 5 week old, C57BL6/1 mice (Mollegard/Bomhultgard, Denmark) were injected with 0.5×10^6 T241 fibrosarcoma cells subcutaneously (s.c.) into the left flank. Animals carrying palpable tumours were randomized (n=7-10 animals/treatment group) and received treatment with vehicle (PBS), 4 mg/kg/day of pHRGP or 5 mg/kg/day of human IgG or His-HRGP, given as daily subcutaneous injections in the right flank. The tumours were measured with a caliper once a day, in a blind procedure, and volumes were calculated by the formula […]. When the tumours reached the upper limit of 2 cm^3, the mice were sacrificed. Three animals in each group were perfused with 4% paraformaldehyde in PBS pH 7.4. Tumours were embedded in paraffin according to standard histological procedures and sectioned at […] thickness.
C57/bl6 mice were inoculated subcutaneously with T241 fibrosarcoma cells on their left flank and when the tumours were palpable (after 4-6 days), a daily treatment was initiated with HRGP or control (PBS; FIG. 2A, or human IgG; FIG. 2B). Endostatin was included in one study for comparison (FIG. 2B). The treatment was given as subcutaneous injections in the right flank until the size of the control tumours reached the upper limit of […] (11 days; FIG. 2A, 14 days; FIG. 2B). Injections with both pHRGP (4 mg/kg/day) and His-HRGP (5 mg/kg/day) led to a drastic reduction in tumour growth and at the time of sacrifice, the size of the tumours was reduced by 67% (FIG. 2A) and 61% (FIG. 2B) respectively, compared to control-treated animals. Endostatin treatment (25 mg/kg/day) lacked significant inhibitory effect on tumour growth in this model (32% decrease).

[3] = system: T241 fibrosarcoma tumour vessels; test: CD31 staining and stereological quantification of tumour vascular parameters; type: in vivo, mice
Description: Paraffin-sections of tumours from control- or HRGP-treated animals were immunohistochemically (IHC) stained for CD31 and Ki67 using a goat anti-mouse CD31 antibody (1506; Santa Cruz), diluted 1:500 and incubated at +4° C. over night, and a rat anti-mouse Ki67 antibody (TEC-3/M7249; DAKO) diluted 1:50 and incubated for 30 min. at room temperature, according to standard IHC procedures. Detection of apoptotic cells by the TUNEL-technique was performed using ApopTag™ (Intergen Company) according to the manufacturer's protocol. Stereological quantification of vascular parameters was performed as described earlier by Weibel et al (1979) and Gundersen et al (1988). Quantification of the relative number of Tunel- and Ki67-positive cells was calculated from approximately 3000 cells per tumour section, in three tumours from each treatment group. Significance at the level of P<0.05 was calculated using Students t-test.
Sections of paraffin-embedded tumours from control (IgG)- or HRGP-treated mice were immunohistochemically stained for CD31 expression to visualise the vessels. […] Stereological quantification of vascular parameters was performed as described earlier by Weibel et al (1979) and Gundersen et al (1988). This method of quantifying tumour angiogenesis relates the length, volume and surface area of the vessels to tumour volume.

[4] = system: primary BCE cells; test: comparative study pep2/pep3, chemotaxis; type: cell-based, bovine; conditions: 100 ng/ml, FGF-2 10 ng/ml
Description: Primary endothelial cells were starved over night in 0.5% normal calf serum. A migration assay was performed in a modified Boyden chamber as described earlier (Auerbach et al., 1991) using micropore polycarbonate filters (8 μm thick, 8 μm pore) coated with type-1 collagen solution at 100 μg/ml (Vitrogen 100, Collagen Corp). Cells were trypsinized and resuspended at 7.5×10^5 cells/ml in Dulbecco's modified essential medium (Invitrogen) containing 0.25% BSA and Trasylol at 1000 KIE. The cell suspension was added in the upper chamber and FGF-2 (10 ng/ml), HRGP (100 ng/ml), peptide 2 or 3 (50 ng/ml) in medium containing 0.25% BSA were added to the lower chamber. The peptides were dissolved in PBS containing a 10-fold molar excess (Zn:peptide) of Zn^2+-acetate. After 5 h at 37° C., cells that had migrated through the filter were stained with Giemsa and counted using the Easy Image Analysis software. All samples were analyzed in at least six wells for each treatment. Results of the study are illustrated in FIG. 7.

[5] = system: BCE cells; test: endothelial cell adhesion to matrix proteins; type: cell-based, bovine; conditions: HRGP 100 ng/ml, serum-free medium, 45 min
Description: BCE cells were detached using non-enzymatic “Cell Dissociation Solution” (Sigma), washed and re-suspended in DMEM/0.1% BSA and FGF-2 (2 ng/ml). The cells were seeded in serum-free medium, with or without HRGP (100 ng/ml), into wells pre-coated with BSA, collagen I, collagen IV, laminin-1 or vitronectin, respectively (CytoMatrix ECM 205 kit, Chemicon). The cells were incubated for 45 (collagen I, collagen IV and vitronectin) or 60 minutes (laminin-1), washed three times in PBS and stained with Hoechst 33342 (1 μg/ml; Molecular Probes). The cells were micro-photographed using the 2× objective and the number of attached cells was counted using the “Easy Image Analysis” software (Tekno Optik). Statistical analysis was performed by ANOVA and Tukeys honestly significant difference (HSD) test. The standard deviation is based on the pooled variance.

[6] = in vivo; cited from earlier work

Substance: HRGP: mature human Histidine Rich Glycoprotein, about 507 amino acid residues
- growth factor-induced CAM angiogenesis (newly formed vessels) [1]: effectively inhibited
- reduction in tumour volume compared to control-treated mice [2]: more than 60%
- vessel diameter in tumours, visual inspection of CD31 staining ([3]; HRGP-treated vs control): reduced vessel diameter
- vascular parameters (length, volume, surface area of vessels related to tumour volume) ([3]; tumours from HRGP-treated vs IgG-treated mice): all six vascular parameters determined were reduced
- FGF-2-induced chemotaxis of primary BCE cells [4]: inhibited
- endothelial cell adhesion to vitronectin, collagen I and collagen IV [5]: decreases endothelial cell adhesion
- plasma half-life [6]: three days
